For 21 compounds, IC50 results are on record in patent publication US8962608B2, “Cycloalkylnitrile pyrazole carboxamides as janus kinase inhibitors” (Merck Sharp & Dohme Corp., priority 2011, dated 2015).

Test [1] addresses JAK1 (recombinant purified GST-tagged catalytic domain) (Homo sapiens (Human), UniProt P23458). The test is described as follows: biochemical.
The target of test [2] is JAK2 (recombinant purified GST-tagged catalytic domain) (Homo sapiens (Human), UniProt O60674). The test is described as follows: biochemical.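 Also: biochemical JAK kinase assay with HTRF detection.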
Chain of JAK2 (recombinant purified GST-tagged catalytic domain) (O60674 849-1124): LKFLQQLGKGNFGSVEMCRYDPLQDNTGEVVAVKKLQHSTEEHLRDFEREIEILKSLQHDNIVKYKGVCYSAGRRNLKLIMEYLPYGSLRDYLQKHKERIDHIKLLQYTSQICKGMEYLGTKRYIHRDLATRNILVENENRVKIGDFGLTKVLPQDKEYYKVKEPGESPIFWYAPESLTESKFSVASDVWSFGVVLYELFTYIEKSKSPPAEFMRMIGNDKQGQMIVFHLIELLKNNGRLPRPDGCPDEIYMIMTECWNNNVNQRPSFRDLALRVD

Chain of JAK1 (recombinant purified GST-tagged catalytic domain) (P23458 875-1153): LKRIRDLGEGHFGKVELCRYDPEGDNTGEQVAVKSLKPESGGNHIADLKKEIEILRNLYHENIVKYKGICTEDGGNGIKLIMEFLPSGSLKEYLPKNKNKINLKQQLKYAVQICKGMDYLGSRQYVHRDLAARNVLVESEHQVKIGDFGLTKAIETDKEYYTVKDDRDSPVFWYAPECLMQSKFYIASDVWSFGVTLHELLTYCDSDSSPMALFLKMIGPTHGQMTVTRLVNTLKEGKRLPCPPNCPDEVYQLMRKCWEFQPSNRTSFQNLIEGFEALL

Take `N#C[C@H]1CC(NCC2CCS(=O)(=O)C2)CC[C@@H]1n1cc(C(N)=O)c(Nc2ccc(S(=O)(=O)C(F)(F)F)cc2)n1` (single isomer, unassigned) [Example 28-152, 1-[(1S,2S or 1R,2R)-2-cyano-4-{[(1,1-dioxidotetrahydrothiophen-3-yl)methyl]amino}cyclohexyl]-3-({4-[(trifluoro-methyl)sulfonyl]phenyl}amino)-1H-pyrazole-4-carboxamide]: the results for the IC50 in test [1] and in test [2] were 0.4 nM and 10 nM, respectively.
The like results for `N#C[C@H]1CC(NC2CCS(=O)(=O)C2)CC[C@@H]1n1cc(C(N)=O)c(Nc2ccc(S(=O)(=O)C(F)(F)F)cc2)n1` (single isomer, unassigned) [Example 28-153, 1-{(1S,2S or 1R,2R)-2-cyano-4-[(1,1-dioxidotetrahydrothiophen-3-yl)amino]cyclohexyl}-3-({4-[(trifluoromethyl)sulfonyl]phen-yl}amino)-1H-pyrazole-4-carboxamide] were, in that order, 0.4 nM and 7 nM.
As to `CN(C)S(=O)(=O)CCNC1CC[C@H](n2cc(C(N)=O)c(Nc3ccc(S(=O)(=O)C(F)(F)F)cc3)n2)[C@@H](C#N)C1` (single isomer, unassigned) [Example 28-154, 1-[(1S,2S or 1R,2R)-2-cyano-4-{[2-(dimethylsulfamoyl)ethyl]a-mino}cyclohexyl]-3-({4-[(trifluoromethyl)sulfonyl]phen-yl}amino)-1H-pyrazole-4-carboxamide], the results for the IC50 in test [1] and in test [2] were 1 nM and 13 nM, respectively.
Taken in the same sequence, the figures for `N#C[C@H]1CC(N2CC[C@H](F)C2)CC[C@@H]1n1cc(C(N)=O)c(Nc2ccc(S(=O)(=O)C(F)(F)F)cc2)n1` (single isomer, unassigned) [Example 28-158, 1-{(1S,2S or 1R,2R)-2-cyano-4-[(3S)-3-fluoropyrrolidin-1-yl]cyclohexyl}-3-({4-[(trifluoro-methyl)sulfonyl]phenyl}amino)-1H-pyrazole-4-carboxamide] were 1 nM and 17 nM.
Regarding `N#C[C@H]1CC(N2CC[C@@H](F)C2)CC[C@@H]1n1cc(C(N)=O)c(Nc2ccc(S(=O)(=O)C(F)(F)F)cc2)n1` (single isomer, unassigned) [Example 28-159, 1-{(1S,2S or 1R,2R)-2-cyano-4-[(3R)-3-fluoropyrrolidin-1-yl]cyclohexyl}-3-({4-[(trifluoro-methyl)sulfonyl]phenyl}amino)-1H-pyrazole-4-carboxamide], the 50% inhibitory concentration (IC50) was 2 nM in test [1] and 18 nM in test [2].
Taken in the same sequence, the figures for `N#C[C@H]1CC(NCC(=O)O)CC[C@@H]1n1cc(C(N)=O)c(Nc2ccc(S(=O)(=O)C(F)(F)F)cc2)n1` (single isomer, unassigned) [Example 28-160, N-{(3S,4S or 3R,4R)-4-[4-carbamoyl-3-({4-[(trifluoro-methyl)sulfonyl]phenyl}amino)-1H-pyrazol-1-yl]-3-cyanocyclohexyl}glycine] were 0.2 nM and 1 nM.
On to `N#C[C@H]1CC(NC(C2CC2)C2CC2)CC[C@@H]1n1cc(C(N)=O)c(Nc2ccc(S(=O)(=O)C(F)(F)F)cc2)n1` (single isomer, unassigned) [Example 28-164, 1-{(1S,2S,4R or 1R,2R,4S)-2-cyano-4-[(dicyclo-propylmethyl)amino]cyclohexyl}-3-({4-[(trifluoro-methyl)sulfonyl]phenyl}amino)-1H-pyrazole-4-carboxamide], for which the IC50 in test [1] turned out to be 4 nM; in test [2], 225 nM.
Taken in the same sequence, the figures for `N#C[C@H]1C[C@@H](NC(C2CC2)C2CC2)CC[C@@H]1n1cc(C(N)=O)c(Nc2ccc(S(=O)(=O)C(F)(F)F)cc2)n1` (single isomer, unassigned) [Example 28-180, 1-{(1S,2S,4S or 1R,2R,4R)-2-cyano-4-[(dicyclopropyl-methyl)amino]cyclohexyl}-3-({4-[(trifluoro-methyl)sulfonyl]phenyl}amino)-1H-pyrazole-4-carboxamide] were 0.6 nM and 39 nM.
For the compound `N#C[C@H]1CC(N(C2CC2)C2CC2)CC[C@@H]1n1cc(C(N)=O)c(Nc2ccc(S(=O)(=O)C(F)(F)F)cc2)n1` (single isomer, unassigned) [Example 28-181, 1-[(1S,2S or 1R,2R)-2-cyano-4-(dicyclopropylamino)cyclohexyl]-3-({4-[(trifluoro-methyl)sulfonyl]phenyl}amino)-1H-pyrazole-4-carboxamide], the values for the IC50 in test [1] and in test [2] were 1 nM and 16 nM, respectively.
Regarding `C[C@H](N[C@@H]1CC[C@H](n2cc(C(N)=O)c(Nc3ccc(C(F)(F)F)cc3)n2)[C@@H](C#N)C1)C1CC1` (single isomer, unassigned) [Example 28-190, 1-[(1S,2S,4R or 1R,2R,4S)-2-cyano-4-{[(1S)-1-cyclopropylethyl]amino}cyclo-hexyl]-3-{[4-(trifluoromethyl)phenyl]amino}-1H-pyrazole-4-carboxamide], the IC50 in test [1] is 2 nM; in test [2], 270 nM.
Taken in the same sequence, the figures for `C[C@H](NC1CC[C@H](n2cc(C(N)=O)c(Nc3ccc(C(F)(F)F)cc3)n2)[C@@H](C#N)C1)C1CC1` (single isomer, unassigned) [Example 28-191, 1-[(1S,2S or 1R,2R)-2-cyano-4-{[(1S)-1-cyclopropylethyl]amino}cyclo-hexyl]-3-{[4-(trifluoromethyl)phenyl]amino}-1H-pyrazole-4-carboxamide] were 0.9 nM and 104 nM.
The like results for `N#C[C@H]1C[C@@H](N[C@H](C2CC2)C(F)(F)F)CC[C@@H]1n1cc(C(N)=O)c(Nc2ccc(C(F)(F)F)cc2)n1` (single isomer, unassigned) [Example 28-192, 1-[(1S,2S,4S or 1R,2R,4R)-2-cyano-4-{[(1S)-1-cyclopropyl-2,2,2-trifluoroethyl]amino}cyclo-hexyl]-3-{[4-(trifluoromethyl)phenyl]amino}-1H-pyrazole-4-carboxamide] were, in that order, 2 nM and 67 nM.
The like results for `N#C[C@H]1C[C@H](N[C@H](C2CC2)C(F)(F)F)CC[C@@H]1n1cc(C(N)=O)c(Nc2ccc(C(F)(F)F)cc2)n1` (single isomer, unassigned) [Example 28-193, 1-[(1S,2S,4R or 1R,2R,4S)-2-cyano-4-{[(1R)-1-cyclopropyl-2,2,2-trifluoroethyl]amino}cyclo-hexyl]-3-{[4-(trifluoromethyl)phenyl]amino}-1H-pyrazole-4-carboxamide] were, in that order, 165 nM and 1000 nM.
Regarding `N#C[C@H]1C[C@@H](N[C@@H](C2CC2)C(F)(F)F)CC[C@@H]1n1cc(C(N)=O)c(Nc2ccc(C(F)(F)F)cc2)n1` (single isomer, unassigned) [Example 28-194, 1-[(1S,2S,4S or 1R,2R,4R)-2-cyano-4-{[(1S)-1-cyclopropyl-2,2,2-trifluoroethyl]amino}cyclo-hexyl]-3-{[4-(trifluoromethyl)phenyl]amino}-1H-pyrazole-4-carboxamide], the half-maximal inhibitory concentration (IC50) in test [1] was determined as 4 nM; in test [2], 152 nM.
Regarding `N#C[C@H]1C[C@H](N[C@@H](C2CC2)C(F)(F)F)CC[C@@H]1n1cc(C(N)=O)c(Nc2ccc(C(F)(F)F)cc2)n1` (single isomer, unassigned) [Example 28-195, 1-[(1S,2S,4R or 1R,2R,4S)-2-cyano-4-{[(1R)-1-cyclopropyl-2,2,2-trifluoroethyl]amino}cyclo-hexyl]-3-{[4-(trifluoromethyl)phenyl]amino}-1H-pyrazole-4-carboxamide], the half-maximal inhibitory concentration (IC50) in test [1] was determined as 177 nM; in test [2] it was 375 nM.
The like results for `CC1(O)CN([C@H]2CC[C@H](n3cc(C(N)=O)c(Nc4ccc(C(F)(F)F)cc4)n3)[C@@H](C#N)C2)C1` (single isomer, unassigned) [Example 28-198, 1-[(1S,2S,4S or 1R,2R,4R)-2-cyano-4-(3-hydroxy-3-methylazetidin-1-yl)cyclohexyl]-3-{[4-(trifluoromethyl)phenyl]amino}-1H-pyrazole-4-carboxamide] were, in that order, 0.15 nM and 3 nM.
The like results for `CC1(O)CN([C@@H]2CC[C@H](n3cc(C(N)=O)c(Nc4ccc(C(F)(F)F)cc4)n3)[C@@H](C#N)C2)C1` (single isomer, unassigned) [Example 28-199, 1-[(1S,2S,4R or 1R,2R,4S)-2-cyano-4-(3-hydroxy-3-methylazetidin-1-yl)cyclohexyl]-3-{[4-(trifluoromethyl)phenyl]amino}-1H-pyrazole-4-carboxamide] were, in that order, 0.3 nM and 9 nM.
The like results for `CC(C)(C)N[C@H]1CCC(n2cc(C(N)=O)c(Nc3ccc(C(F)(F)F)cc3)n2)[C@@H](C#N)C1` (single isomer, unassigned) [Example 28-204, 1-[(1S,2S,4S or 1R,2R,4R)-4-(tert-butylamino)-2-cyanocyclohexyl]-3-{[4-(trifluoromethyl)phenyl]amino}-1H-pyrazole-4-carboxamide] were, in that order, 0.2 nM and 26 nM.
`CC(C)(CO)N[C@H]1CCC(n2cc(C(N)=O)c(Nc3ccc(Cl)cc3)n2)[C@@H](C#N)C1` (single isomer, unassigned) [Example 28-210, 3-[(4-chlorophenyl)amino]-1-{(1S,2S,4S or 1R,2R,4R)-2-cyano-4-[(2-hydroxy-1,1-dimethylethyl)amino]cyclo-hexyl}-1H-pyrazole-4-carboxamide]: the half-inhibitory concentration (IC50) came out at 1 nM in test [1] and 41 nM in test [2].
The like results for `CC1(N[C@H]2CCC(n3cc(C(N)=O)c(Nc4ccccc4)n3)[C@@H](C#N)C2)CC1` (single isomer, unassigned) [Example 28-216, 1-{(1S,2S,4S or 1R,2R,4R)-2-cyano-4-[(1-methylcyclopropyl)amino]cyclo-hexyl}-3-(phenylamino)-1H-pyrazole-4-carboxamide] were, in that order, 2 nM and 24 nM.
Regarding `CN(CC1(C)COC1)[C@H]1CCC(n2cc(C(N)=O)c(Nc3ccc(Cl)cc3)n2)[C@@H](C#N)C1` (single isomer, unassigned) [Example 28-219, 3-[(4-chlorophenyl)amino]-1-[(1S,2S,4S or 1R,2R,4R)-2-cyano-4-{methyl[(3-methyloxetan-3-yl)methyl]amino}cyclohexyl]-1H-pyrazole-4-carboxamide], the IC50 came to 1 nM in test [1] and 11 nM in test [2].
